Measurements as given in patent US4533739A, “2-[(Aminophenyl and amidophenyl)amino]-1-azacycloalkanes having antidiarrheal activity” (G. D. Searle & Co., priority 1982, dated 1985).
Structures can show the parent of a compound that is named as a salt.

System: castor-oil-induced diarrhea
Test: Castor oil-induced diarrhea in rats
Conditions: Rattus norvegicus, po, 4 h, read-out: Castor Oil ID50 (mg/kg)-4 hr.

Going from `Cc1cc(N)ccc1NC1=NCCC1.Cl.Cl` [Example 9, 2-[(2-Methyl-4-aminophenyl)amino]-1-pyrroline, dihydrochloride] to `CC(=O)Nc1ccc(NC2=NCCC2)c(C)c1` [Example 16, 2-[(2-Methyl-4-acetamidopheny)amino]-1-pyrroline, hydrochloride], the ED50 rises from 0.97 mg/kg to 3.63 mg/kg (3.7-fold).

First: Cc1cc(N)cc(C)c1NC1=NCCC1.Cl.Cl [Example 11, 2-[(2,6-Dimethyl-4-aminophenyl)amino]-1-pyrroline, dihydrochloride]
Second: CCOC(=O)Nc1ccc(NC2=NCCC2)c(C)c1.Cl [Example 23, 2-[(2-Methyl-4-(ethoxycarbonylamino)phenyl)-amino]-1-pyrroline, hydrochloride]
The ED50 of the first is 7.5-fold higher: 13.6 mg/kg for the first, 1.81 mg/kg for the second.

Work on `CCC(=O)Nc1ccc(NC2=NCCC2)c(C)c1.Cl` [Example 18, 2-[(2-Methyl-4-(propanamido)phenyl)amino]-1-pyrroline, hydrochloride] yielded an ED50 of 0.97 mg/kg.

System: not given
Test: not given
Conditions: lowering of blood pressure, hyperglycemic activity, inhibitory action on central nervous system; cited from earlier work

For `Clc1cccc(Cl)c1N=C1CCCN1` [2-(2,6-dichloroophenylimino)pyrrolidine], the “pharmacodynamic activity in words” value is listed as “pharmacodynamically active”.
